In experiment [1] the test system is Cryptococcus neoformans. Kind of experiment: Antifungal activity against Cryptococcus neoformans ATCC 90113 assessed as fungal growth inhibition incubated for 72 hrs by alamar blue assay. It counts as functional. To be noted: Cryptococcus neoformans, ATCC 90113, 72 h, read-out: MIC.
The subject of experiment [2] is Aspergillus fumigatus. Kind of experiment: Fungicidal activity against Aspergillus fumigatus ATCC 90906 assessed as fungal growth inhibition incubated for 72 hrs by alamar blue assay. It counts as functional. (The colour change of resazurin is a common sign of viable cells or microbes.)
The test system of experiment [3] is Nakaseomyces glabratus. The experiment can be described thus: Antifungal activity against Candida glabrata ATCC 90030 assessed as fungal growth inhibition incubated for 18 to 24 hrs by alamar blue assay. It counts as functional.
Experiment [4] deals with Nakaseomyces glabratus. Kind of experiment: Fungicidal activity against Candida glabrata ATCC 90030 assessed as fungal growth inhibition incubated for 18 to 24 hrs by alamar blue assay. It counts as functional.
Experiment [5] relates to Vero. The experiment can be described thus: Cytotoxicity against African green monkey Vero cells assessed as reduction in cell viability incubated for 48 hrs by neutral red dye based assay. Details: species or system Chlorocebus sabaeus. To be noted: Chlorocebus sabaeus, Vero, 48 h.
Experiment [6] relates to Aspergillus fumigatus. Kind of experiment: Antifungal activity against Aspergillus fumigatus ATCC 90906 assessed as fungal growth inhibition incubated for 72 hrs by alamar blue assay. It counts as functional.
Experiment [7] deals with Cryptococcus neoformans. Kind of experiment: Fungicidal activity against Cryptococcus neoformans ATCC 90113 assessed as fungal growth inhibition incubated for 72 hrs by alamar blue assay. It is filed as functional. To be noted: Cryptococcus neoformans, ATCC 90113, 72 h, read-out: MFC.
Experiment [8] has as its system Pichia kudriavzevii. Kind of experiment: Fungicidal activity against Candida krusei ATCC 6258 assessed as fungal growth inhibition incubated for 18 to 24 hrs by alamar blue assay. It is filed as functional.
For experiment [9], the system named is Pichia kudriavzevii. Kind of experiment: Antifungal activity against Candida krusei ATCC 6258 assessed as fungal growth inhibition incubated for 18 to 24 hrs by alamar blue assay. It counts as functional.
Experiment [10] deals with Candida albicans. Kind of experiment: Fungicidal activity against Candida albicans ATCC 90028 assessed as fungal growth inhibition incubated for 18 to 24 hrs by alamar blue assay. It is filed as functional.
Experiment [11] has as its system Candida albicans. The experiment can be described thus: Antifungal activity against Candida albicans ATCC 90028 assessed as fungal growth inhibition incubated for 18 to 24 hrs by alamar blue assay. It is filed as functional.
[12] abbreviates: Aspergillus fumigatus, ATCC 90906, 72 h, read-out: MFC.
[13] abbreviates: Nakaseomyces glabratus, ATCC 90030, time 18-24 hrs, read-out: MIC.
Setting [14] is: Nakaseomyces glabratus, ATCC 90030, time 18-24 hrs, read-out: MFC.
Setting [15] is: Aspergillus fumigatus, ATCC 90906, 72 h, read-out: MIC.
The mark [16] stands for this setting: Pichia kudriavzevii, ATCC 6258, time 18-24 hrs, read-out: MFC.
The mark [17] stands for this setting: Pichia kudriavzevii, ATCC 6258, time 18-24 hrs, read-out: MIC.
The mark [18] stands for this setting: Candida albicans, ATCC 90028, time 18-24 hrs, read-out: MFC.
Where [19] appears, read: Candida albicans, ATCC 90028, time 18-24 hrs, read-out: MIC.

Drawing on ChEMBL document CHEMBL4828718, “Synthesis and Antifungal Activity Evaluation of Phloeodictine Analogues” (J Nat Prod, 2021), this text covers MIC, MFC and IC50 for 8 compounds.

Activity calls are given as the source filed them.

Usually MIC stands for the least concentration at which growth counts as inhibited. The term MFC denotes the smallest concentration meeting the test's criterion for killing the fungus. One may read the IC50 as the midpoint of a concentration-inhibition curve.

For `CCCCCCCCCCCCCCC1(O)C(C)=C(C)C2=[N+](Cc3ccc(C(F)(F)F)cc3)CCCN21` (stereo not drawn), the MIC is 1 µM in [1]; 2 µM in experiment [3] (setting [13]); 17 µM in experiment [6] (setting [15]); 2 µM in [9] (setting [17]); 5.5 µM in [11] (setting [19]). Besides, the MFC in experiment [2] (setting [12]) worked out at 19 µM; in experiment [4] (setting [14]), 2 µM; in [7], 3.5 µM; in experiment [8] (setting [16]), 2 µM; in experiment [10] (setting [18]), 7 µM. Further, the IC50 in experiment [5] was more than 42 µM.

As for `CCCCCCCCCCCCCCC1(O)C(C)=C(C)C2=[N+](C)CCCN21` (stereo not drawn), the MIC was 0.99 µM in experiment [1]; 4.2 µM in experiment [3] (setting [13]); 5 µM in [6] (setting [15]); 2 µM in [9] (setting [17]); 5 µM in experiment [11] (setting [19]). The MFC in [2] (setting [12]) came out at 5 µM; in experiment [4] (setting [14]), 5 µM; in [7], 2.4 µM; in [8] (setting [16]) it was 2 µM; in [10] (setting [18]), 6.5 µM. In [5], the IC50 was 39 µM.

`CCCCCCCCCCCCCCC1(O)C=CC2=[N+](C)CCCN21` (stereo not drawn): the MIC in experiment [1] was found to be 0.21 µM; in experiment [3] (setting [13]), 1.7 µM; in experiment [6] (setting [15]) it was 4.4 µM; in [9] (setting [17]) it was 2.1 µM; in experiment [11] (setting [19]), 5.2 µM. Moreover, the minimal fungicidal concentration (MFC) in experiment [2] (setting [12]) stood at 4.4 µM; in experiment [4] (setting [14]), 1.7 µM; in experiment [7], 0.21 µM; in experiment [8] (setting [16]) it was 2.1 µM; in experiment [10] (setting [18]) it was 5.2 µM. Moreover, the IC50 in [5] turned out to be 17 µM.

On to `CCCCCCCCCCCCCCC1(O)C(C)=C(C)C2=[N+](C)c3ccccc3CN21` (stereo not drawn), for which, in [1], the minimum inhibitory concentration (MIC) stood at 2.4 µM. Besides, the MFC entry in experiment [2], in [4] (time 18-24 hrs), in experiment [8] (time 18-24 hrs) and in experiment [10] (time 18-24 hrs) was “inactive” in each case. The MIC entry in [3] (time 18-24 hrs), in [6], in experiment [9] (time 18-24 hrs) and in experiment [11] (time 18-24 hrs) was “inactive” in each case. Also, in experiment [5], the IC50 is more than 45 µM. In addition, the MFC in experiment [7] was determined as 2.4 µM.

In the case of `CCCCCCCCCCCCCCC1(O)C(C)=C(C)C2=[N+](Cc3cc(C(F)(F)F)cc(C(F)(F)F)c3)CCCN21` (stereo not drawn), the MIC in experiment [1] was determined as 1.8 µM; in experiment [3] (setting [13]), 2.5 µM; in [9] (setting [17]), 3.7 µM; in experiment [11] (setting [19]), 30 µM. In addition, the MFC result in experiment [2] and in experiment [10] (time 18-24 hrs) was “inactive” throughout. Further, the MFC in experiment [4] (setting [14]) turned out to be 2.5 µM; in experiment [7], 2.5 µM; in experiment [8] (setting [16]), 3.7 µM. Further, in [5], the IC50 was more than 37 µM. In addition, the MIC entry in experiment [6] is “inactive”.

Regarding `CCCCCCCCCCCCCCC1(O)C(C)=C(C)C2=[N+](Cc3ccc4ccccc4c3)CCCN21` (stereo not drawn), the MIC in experiment [1] is 3.9 µM. The MFC result in experiment [2], in experiment [4] (time 18-24 hrs), in experiment [8] (time 18-24 hrs) and in [10] (time 18-24 hrs) was “inactive” in each case. Moreover, the MIC entry in experiment [3] (time 18-24 hrs), in experiment [6], in experiment [9] (time 18-24 hrs) and in [11] (time 18-24 hrs) was “inactive” each time. For the same compound, the IC50 in experiment [5] amounted to 42 µM. Further, the minimum fungicidal concentration (MFC) in experiment [7] is 12 µM.

Take `CCCCCCCCCCCCCCC1(O)C(C)=C(C)C2=[N+](CC(=O)OCC)CCCN21` (stereo not drawn): the minimal inhibitory concentration (MIC) in experiment [1] came out at 1.9 µM; in experiment [3] (setting [13]), 6.2 µM; in experiment [6] (setting [15]), 9.4 µM; in [9] (setting [17]) it was 5.5 µM; in [11] (setting [19]), 9.4 µM. The MFC in experiment [2] (setting [12]) is 9.4 µM; in experiment [4] (setting [14]), 11 µM; in experiment [7], 2.8 µM; in [8] (setting [16]) it was 5.5 µM; in [10] (setting [18]), 17 µM. In addition, the IC50 in [5] amounted to 44 µM.

Consider `CCCCCCCCCCCCCCC1(O)C(C)=C(C)C2=[N+](Cc3ccc(Br)cc3)CCCN21` (stereo not drawn), for which the MIC in experiment [1] came out at 3.4 µM; in experiment [3] (setting [13]) it was 2 µM; in [6] (setting [15]) it was 5.4 µM; in [9] (setting [17]) it was 2 µM; in [11] (setting [19]), 5.4 µM. Besides, the MFC in [2] (setting [12]) came to 8.2 µM; in experiment [4] (setting [14]) it was 2 µM; in experiment [7], 6 µM; in experiment [8] (setting [16]), 2 µM; in experiment [10] (setting [18]), 5.4 µM. The IC50 in [5] amounted to 35 µM.
